This is an account of results in article PMC7940618, “Specific inhibition of the Survivin–CRM1 interaction by peptide-modified molecular tweezers” (Nature Communications, 2021).

SMILES strings stand for the structures.

One experiment deals with T1, Survivin–CRM1 complex (Homo sapiens, UniProt O15392).
T1 construct: expressed in transfected cells; host or cells: 293T cells (Survivin142-HA); E. coli soluBL21 (GST-CRM1, RanQ69L)
As to the kind of experiment: Pull-down with 293T lysate (Survivin142-HA), GST-CRM1 bait, RanQ69L, dGTP. The format is binding. The settings on record: pull-down, tweezer 0.01 to 200 µM, 293T lysate. Here is the method: We next investigated whether tweezers inhibit the Survivin–CRM1 complex formation in vitro. The effects of the unmodified and peptide-linked tweezers were analyzed via pull-down experiments with 293T lysates containing overexpressed HA-tagged Survivin142, recombinant GST-CRM1 as bait protein, and tweezers (Fig. 6). The parent and ELTL-linked tweezer required 10–50 µM to disrupt the Survivin–CRM1 complex. […] In order to provide experimental evidence for the sequence selectivity of the TW-ELTLGEFL ligand, a scrambled analog was synthesized and clicked to the tweezer, resulting in the hybrid molecule TW-LFEEGLLT (SI1, SI2, and SI10). […] Instead, the slight chemical shift perturbations might be due to the spatial proximity of the peptide moiety to the anchoring residue. All those results strongly indicate that the additional binding energy from the NES interface was lost due to scrambling and thus point toward specific recognition as the reason for increased selectivity and interference with the Survivin–CRM1 interaction. Of note, very high tweezer concentrations (100–200 µM) also weakened GST-CRM1 binding to GSH-Sepharose beads, most likely by low-affinity binding to the GST protein.
All pull-down assays were performed at room temperature in pull-down buffer (PBS, pH 7.4, 1 mM DTT, 0.02 Triton X-100). GST fusion proteins were immobilized on 50 μL GSH-coated Sepharose 4B beads from GE Healthcare. The beads were prior equilibrated and blocked with 500 μL pull-down blocking buffer (PBS, pH 7.4, 1 (w/v) BSA, 1 mM DTT, 0.02 (v/v) Triton X-100) for 1 h to prevent unspecific binding.
For analysis of the effective inhibitory tweezer concentration, 200 μg 293T lysate with overexpressed Survivin142-HA was preincubated without ligand or with different concentrations (10 nM to 200 μM) of unmodified tweezer TW, TW-ELTL, TW-ELTLGEFL, or TW-LFEEGLLT for 1 h and then mixed with 35 μg GST-CRM1, 55 μg RanQ69L, and 2 mM dGTP. GSH-beads were incubated with this protein mixture for 2 h under rotation. […]
Samples of input and beads taken during pull-down experiments were ran on 12.5 SDS gels and transferred onto 0.2 µM PVDF membranes (Amersham Hybond P 0.2) using a PerfectBlue™ tank electro blotter (Peqlab) at 350 mA for 150 min. […] Chemiluminescence was detected and imaged using the Pierce ECL Plus Western Blotting Substrate kit (Thermo Fisher Scientific) and Chemidoc system (Bio-Rad) or film processor Cawomat 2000 IR (CAWO). Western blots were analyzed by densitometric analysis with ImageJ version 1.52p (U.S. National Institutes of Health), measuring the mean gray intensity of protein bands. […]

On the set-up of experiment [1]: method as in PMID 23750919. The settings on record: read-out: KD, affinity toward lysine; cited from earlier work.
In another experiment the target is T2, Survivin120 (Homo sapiens, UniProt O15392).
T2 construct: the only published NMR structure originated from a truncated Survivin (aa 1-120) with improved solubility; GST with PreScission site (N); made in house; host or cells: Escherichia coli soluBL21
The experiment can be described thus: Reverse ITC titration (tweezer into Survivin120). It counts as binding. The settings on record: tweezer added to constant Survivin. On the procedure:
ITC was performed with a MicroCal iTC200 from Malvern Panalytical in PBS, pH 7.4 at 25 °C with molecular tweezers in the cell and Survivin120 in the titration syringe. The protein was dialyzed overnight at 4 °C against the PBS buffer. Ligands were dissolved in the respective dialysis buffer. Then, 300 µM TW were titrated with 300 µM Survivin120 WT or 321 µM Survivin120 K90/103T. Then, 100 µM TW-ELTL, TW-ELTLGEFL, or TW-LFEEGLLT was titrated with 1.2 mM Survivin120 WT or 2.5 mM Survivin120 K90/103T. For reverse titrations, either 33.3 or 34.4 µM Survivin120 in the cell was titrated with 5 mM TW or TW-ELTL in the syringe, respectively. All titrations were performed in PBS, pH 7.4 at 25 °C. Then, 1.5 μL injections were used with 120 s spacing time between injections. The injection rate was set to 0.5 µL/s and the reference power was 5 µcal/s. ITC thermograms were fitted to a one set of sites model with the software Origin (v7.0552) provided with the instrument. Heat of dilution was subtracted as constant from each data point.
Supplementary Figure SI8: Reverse ITC titrations. Titration of 33.3 μM (a) and 34,4 µM (b) Survivin120 in the cell with 5 mM unmodified tweezer TW (a) and TW-ELTL (b) in the syringe.
All titrations (n = 1) were performed in PBS, pH 7.4 at 25 °C. Top row: raw heating power over time subtracted by control heating power of Survivin120 titration into PBS. […]

T1 sequence (O15392 whole entry, one chain of several): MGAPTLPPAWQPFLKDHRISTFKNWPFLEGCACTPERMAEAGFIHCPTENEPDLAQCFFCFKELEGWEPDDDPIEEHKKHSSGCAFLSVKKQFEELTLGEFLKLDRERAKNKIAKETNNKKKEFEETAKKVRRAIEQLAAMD
T2 sequence (O15392 1-120): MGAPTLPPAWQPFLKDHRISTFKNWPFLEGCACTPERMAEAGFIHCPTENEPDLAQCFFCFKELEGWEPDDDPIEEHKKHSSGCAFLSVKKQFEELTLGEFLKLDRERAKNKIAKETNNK

In general, Kd refers to the concentration at which binding is half-saturated. For `O=P(O)(O)Oc1c2c(c(OP(=O)(O)O)c3c1C1CC3c3cc4c(cc31)C1CC4c3ccccc31)C1CC2c2cc3c(cc21)C1CC3c2ccccc21` [TW, reference compound], the “concentration required to disrupt the Survivin–CRM1 complex” value at Survivin–CRM1 complex was in the range of 10 to 50 µM. The Kd in experiment [1] was 17 µM. Also, on Survivin120, the “tweezer molecules accommodated on the protein surface (kink at fold tweezer excess)” value is on record as 4–5.
With `CC(C)C[C@H](NC(=O)[C@@H](NC(=O)[C@H](CC(C)C)NC(=O)[C@H](CCC(=O)O)NC(=O)Cn1cc(CCOP(=O)(O)Oc2c3c(c(OP(=O)(O)O)c4c2[C@H]2C[C@@H]4c4cc5c(cc42)[C@H]2C[C@@H]5c4ccccc42)[C@H]2C[C@@H]3c3cc4c(cc32)[C@H]2C[C@@H]4c3ccccc32)nn1)[C@@H](C)O)C(=O)O` [TW-ELTL], the “concentration required to disrupt the Survivin–CRM1 complex” value on Survivin–CRM1 complex lay in the range of 10 to 50 µM. For the same compound, the “tweezer molecules accommodated on the protein surface (kink at fold tweezer excess)” value on Survivin120 is 4–5.
